{
  "source": "patent US9901609B2",
  "about": "“Medicinal plant extract” (UNIVERSITY OF ANTWERP, priority 2013, dated 2018)",
  "assay": "Body weight monitoring during the in vivo experiment",
  "parameters": "species or system dogs",
  "details": "entire experiment (180 days)",
  "experimental": "After each surgical procedure each dog received marbofloxacin 2% (1 mg/kg body weight) during 4 days. The body weight of all dogs was monitored during the entire experiment. Data are expressed as mean±SEM. Data were analyzed using one way analysis of variance (ANOVA), followed by the Bonferroni test or Kruskal-Wallis analysis and Dunnett T3. P≦0.05 was considered significant.",
  "data": [
    {"smiles": "C[C@H](CCC(=O)O)[C@H]1CC[C@H]2[C@@H]3[C@@H](O)C[C@@H]4C[C@H](O)CC[C@]4(C)[C@H]3CC[C@]12C", "note": "[UDCA, ursodeoxycholic acid]", "values": [
      {"measurement": "body weight of the dogs over time", "value": "gained or lost no body weight over time"}
    ]}
  ]
}
